| melting point [°C] | SMILES |
| --- | --- |
| > 230 | CCc1nn2c(O)cc(O)nc2c1S(=O)(=O)c1ccccc1 |
| 161 to 163 | COC(=O)C1CCCCc2c1ncn2C(c1ccccc1)(c1ccccc1)c1ccccc1 (stereo not given) |
| 145 | O=CC1CC(O)c2ccccc2C1O (stereo not given) |
| 208 to 210 | CCOC(=O)C1=C(C)NC(c2csc(C)n2)=NC1c1ccc(O)cc1 (stereo not given) |
| 129 to 130 | CC(C)NC(=O)c1nc(-c2ccccc2F)c(-c2ccc(=O)n(C(C)C)n2)s1 |
| 81 to 83 | CCOc1ccc(CCCOc2nn(C)cc2CC(=O)O)c(Oc2ccc(Cl)cc2Cl)n1 |
| 286 to 289 | Cn1cc(C2=C(c3c4n(c5ccccc35)CCCC4)C(=O)NC2=O)c2ccccc21 |
| 386 to 388 | COc1ccc(-n2c(=O)[nH]c3c(C(N)=O)nc(-c4cccc(O)c4)nc32)cc1 |
| 214 to 215 | CN(Cc1ccccc1)C(Cc1ccccc1)C(=O)O (stereo not given) |
| 74 to 76 | Cc1cccc(C)c1N(CC(=O)N(C)C)C(=O)CCl |
| 132 to 134 | CN1C(=O)C(C(=O)NCCCCCC(=O)O)S(=O)(=O)c2ccccc21 (stereo not given) |
| 144 to 147 | CCC(=O)NC[C@H]1CN(c2ccc(C3C=CS(=O)(=O)CC3)cc2)C(=O)O1 (stereo not given in full) |
| 112 | Cc1ccnc(N2CCN(C(=O)CCCC3Cn4c(-c5cc(C)c(O)c(C)c5)c(C)c5cccc(c54)O3)CC2)c1 (stereo not given) |
| 87 to 88 | CCc1cn(C[C@@H](C)O)c2ccc(F)c(Cl)c12 |
| 141 to 142 | CC(=O)OC1CCC2(C)C(CCC3C2CCC2(C)C(C(C)=O)CCC32)C1 (stereo not given) |
| 138 to 139 | C=CCN(C(=O)OC(C)(C)C)c1cc(OC)c(-c2ccc(C[C@H](NC(=O)c3c(Cl)cccc3Cl)C(=O)O)cc2)c(OC)c1 |
| 89 to 90 | O=C1CC2CCCC(CC(=O)OCc3ccccc3)C2N1 (stereo not given) |
| 99.5 to 100 | CC(C)c1nc(CCOC2=CCC(C(C)(C)C)CC2)n(C)c1Sc1cc(Cl)cc(Cl)c1 (stereo not given) |
| 260 | CN(C)C(=O)N[C@H]1CC[C@H](CCN2CCC(c3cccc4c3CCO4)CC2)CC1 |
| 162 | O=C(O)Cc1cc(OCc2ccc3ccccc3n2)ccc1Nc1c(Cl)cccc1Cl |

| melting point [°C] | SMILES |
| --- | --- |
| 290 to 292 | O=C1NCc2c1cc1ccc3c(c1c2-c1ccccc1)OCO3 |
| 120 to 121 | COC(=O)c1ccccc1OCC(O)CN1CCN(c2ccccc2OC)CC1 (stereo not given) |
| 156 to 158 | CCCc1c(OCCC2Cc3cc(C(=O)CCC(=O)O)ccc3O2)ccc(C(C)=O)c1O (stereo not given) |
| 200 to 202 | O=C(CNS(=O)(=O)c1ccc2ccccc2c1)NCC(NC(=O)C1CCN(c2ccncc2)CC1)C(=O)C1CCCCN1 (stereo not given) |
| 164 to 167 | Cn1c(CBr)c(C(=O)c2ccccc2)c(=O)n(C)c1=O |
| 102 to 104 | COC(=O)C(Oc1cc(OCc2ccsc2)ccc1C#N)c1ccccc1Cl (racemic) |
| 116 to 118 | CCOC(=O)c1cc2cc(N3CCN(C(=O)OC(C)(C)C)CC3)ccc2o1 |
| 147 | C#CCCC(O)=C(C#N)C(=O)Nc1ccc(Cl)c(C)c1 |
| 117 to 120 | COc1ccc(C)cc1NC(=O)Nc1ccc(C2=CCN(C(=O)Nc3ccc(OCCO)cc3Cl)CC2)cc1 |
| 115 to 117 | CN1CCN(c2cccc3ccc(NCc4ccccc4)cc23)CC1 |
| 97 to 99 | O=S(=O)(c1ccccc1)N1CCC(C(O)(c2ccc(F)cc2)c2ccc(F)c(F)c2)CC1 (stereo not given) |
| 86 to 88 | O=C(NCCO)c1ccc(-c2ccccn2)cc1 |
| 146 to 148 | O=C1CCC(=O)N1SCc1ccc([N+](=O)[O-])cc1 |
| 50 to 52 | COc1cccc(CN2CCC(c3cc(-c4ccc(Cl)cc4)[nH]n3)CC2)c1 |
| 67 to 69 | CN(C)CCCOc1ccccc1CNc1ccccc1 |
| 140 | CCOC(=O)c1ncn(-c2cc(C(F)(F)F)ccc2[N+](=O)[O-])c1C |
| 207 to 210 | CCC1CC2=C3C(=CN(OC)C2OC)OCCC3C1 (stereo not given) |
| 143 to 144 | COc1ccc2c(c1)c(CC(=O)NN)cn2Cc1ccccc1 |
| 297 to 299 | Cc1c2c(cc3c(=O)c4ccccc4oc13)CC(C(=O)O)O2 (stereo not given) |
| 143 to 144 | O=C(O)COc1ccc(SCc2ccc(OCc3ccc(C(F)(F)F)cc3)cc2)c2c1CCCO2 |

The remaining lines, values behind:

| SMILES | melting point [°C] |
| --- | --- |
| CC(C)Oc1ccccc1C=C(C=O)C(C=O)=Cc1ccccc1OC(C)C | 109 to 110 |
| Cc1cc(CCCCCOc2ccc(C3OC=CO3)cc2)on1 | 38 to 39 |
| COc1ccc2cc(C(C)C(=O)OCc3ccc(OC(=O)OCC[Si](C)(C)C)cc3)ccc2c1 (stereo not given) | 58 to 59 |
| O=C(O)CCCCNC(=O)CCCCC1CCSS1 (stereo not given) | 98 to 100 |
| CCCCCS(=O)(=O)NC(=O)C(C)Cc1ccc(OCCOC)cc1Oc1ncc(C(F)(F)F)cc1Cl (stereo not given) | 136 to 138 |
| Cc1cc2[nH]c3cc(Cl)ncc3c(=O)n2n1 | > 300 |
| COc1ccc(C(Cc2ccc(OCCc3nc(-c4ccccc4)oc3C)cc2)C(=O)O)cc1 (stereo not given) | 115 to 117 |
| CC(C)n1cc(-c2nc(C#N)c(N)nc2-c2ccc(F)cc2)ccc1=O | 207 |
| Clc1cnnc(Cl)c1Cl | 61 |
| CC(CO)C(O)(Cn1cncn1)c1ccc(Cl)cc1Cl (single isomer, unassigned; (+)) | 110 to 111 |
| CCOC(=O)c1cn(-c2csnn2)c2nc(Cl)c(F)cc2c1=O | 188 to 192 |
| COC(=O)C(CNC(=O)Cc1ccc(OC)c(OC)c1)c1ccc(OC)c(OC)c1 (stereo not given) | 92 to 93 |
| O=S(CBr)c1ccc(Cl)cc1 (stereo not given) | 100 |
| Cc1ccccc1-n1c(-c2sc(Nc3ccccc3)nc2C)nc2ccccc2c1=O | 227 to 228 |
| C/C=C/OC(=O)/C=C/N(C)C | 48 to 48.5 |
| Cc1ccc(-n2c(-c3ccc(Br)cc3)c(Br)c(Br)c2-c2ccc(Br)cc2)cc1 | 240 to 242 |
| CCSC1=NCC(O)CN1 (stereo not given) | 106 to 108 |
| CNC(C(C)C)C(c1ccccc1)c1ccccc1 (stereo not given) | 46 to 48 |
| COc1cccc(-c2nc(C(=O)OC(C)(C)C)c(-c3ccncc3)[nH]2)c1 | 197 to 199 |
| C[C@@H](O)Cn1ccc2cc(F)c(F)cc21 | 114 to 116 |
| CCc1c(-c2cc(C)c(O)c(C)c2)[nH]c2ccccc12 | 107 |
| CCCCc1oc2ccccc2c1-c1ncc(-c2ccc3c(Br)c(OCc4ccc(C(=O)OC)cc4)ccc3c2)o1 | 143 to 145 |
| COc1cc(-c2ccc3cc4c(cc3c2)C(C)(C)CCC4(C)C)ccc1C(=O)O | 177 to 178 |
| Clc1cccc(NC2=Nc3ccc(Cl)cc3CS2)c1 | 174 to 175 |
| CCN(CC)Cc1cnc2cc(NC(=O)c3ccc(-c4ccc(F)cc4)cc3)c(C)cc2c1 | 145 to 148 |
| COc1ccc(-c2nnc3c4ccccc4c(OCCCCO)nn23)cc1 | 180 to 182 |
| C=CCN(CC=C)Cc1noc(-c2ncn3c2CN(C)C(=O)c2ccccc2-3)n1 | 203 to 205 |
| O=c1[nH]c2cc(NO)ccc2c(=O)n1CCCCN1CC=C(c2ccccc2)CC1 | 187 to 189 |
| O=C(NCc1ccc(OCc2cccc(F)c2)cc1)C(=NO)c1ccccn1 | 146 to 148 |
| Nc1nc(OC(F)(F)F)cc(C(F)(F)F)n1 | 47 to 49 |
